According to ChEMBL document CHEMBL1142341, “Vinyl ester-based cyclic peptide proteasome inhibitors” (Bioorg Med Chem Lett, 2008):
Residues, ends and D or L forms follow the SMILES beside them. *: point of attachment. X1 = CCOC(=O)/C=C/[C@H](CC(C)C)N*

Assay: Half life in human plasma
Assay type: ADME, cell-free

half-life [h] | SMILES
> 6 | CCOC(=O)/C=C/[C@H](CC(C)C)NC(=O)CC[C@@H]1NC(=O)[C@H](CC(C)C)NC(=O)[C@H](CC(C)C)NC(=O)[C@H](Cc2ccccc2)NC1=O (cyclo(E(X1)FLL))
> 6 | CCOC(=O)/C=C/[C@H](CC(C)C)NC(=O)C[C@@H]1NC(=O)[C@H](CO)NC(=O)[C@H](C(C)C)NC(=O)[C@H](Cc2ccccc2)NC1=O (cyclo(D(X1)FVS))
> 6 | CCOC(=O)/C=C/[C@H](CC(C)C)NC(=O)C[C@@H]1NC(=O)[C@H](CC(C)C)NC(=O)[C@H](CC(C)C)NC(=O)[C@H](Cc2ccccc2)NC1=O (cyclo(D(X1)FLL))
